Data set [1] concerns HIV-1. Briefly: Inhibition of HIV-1 replication in cultured macrophages (Table I). Type of data set: cell-based. The settings on record: Human immunodeficiency virus 1, Macrophage; 50% inhibition of viral growth, RT or p24, macrophages. The protocol:
A quantitative measurement of the activity of the compounds of the invention to block the replication of HIV-1 in non-dividing cells can be determined by culture of a macrophage-tropic strain of HIV-1 on peripheral blood-derived macrophages. The cells are cultured for 5-6 days prior to infection in a medium consisting of DMEM supplemented with 10% type A/B human serum and 200 U/ml Macrophage Colony Stimulating Factor, with half the medium changed after 3 days, to reach a density of about 10^6 cells per 5 ml well. A macrophage-tropic viral stock may be grown on these cells. The concentration of infectious particles in the stock is estimated by measurement of p24 antigen concentration.
To test the effect of compounds of the invention on HIV- 1 infection in the above-described culture system, the medium is removed and replaced with medium containing HIV-1 at a concentration of 1 ng of p24 (10^4 TCID50 /ml (TCID=tissue culture infectious doses)) and a known concentration of the compound of the invention (the inhibitor). After 24 hours, the cultures are washed to remove non-adherent virus and the culture is re-fed with medium containing the inhibitor at the desired concentration. The amount of replication of HIV-1 is estimated by an assay of the reverse transcriptase activity or by an assay of the concentration of p24 antigen in the culture medium every 2-3 days throughout the post-infection period. In a preferred embodiment the anti-HIV potency of the candidate drug is measured by comparison of the concentration of reverse transcriptase (RT) or of p24 antigen in the medium of the treated and control cultures at the time of the peak of these values in non-treated control cultures, that is about day 5 or 6 post-infection. Repetition at various levels of inhibitor allows for the calculation of the concentration of inhibitor that achieves 50% inhibition of viral growth, IC50. Table I discloses the IC50 of various inhibitors.

Data set [2] concerns mice. Briefly: Toxicity study: median lethal dose in mice, i.p. In kind it is in vivo. As for the experimental part: The doses of compounds of the invention found to be lethal to 50% of the mice (LD50) were determined by intraperitoneal injection of groups of five animals with increasing doses of each compound. CNI-0294 was administered from 0, 2, 10, 20, 40, 80, 160, 320, 640, 1280 mg/kg in 0.5 ml of water/HCl; CNI-1594 at 0, 2.4, 5, 10, 20, 40, 80 mg/kg in 0.5 ml of water/HCl; CNI-1794 at 0, 20, 50, 80 mg/kg in 0.5 ml of water/HCl; and CNI-1894 at 0, 10, 20, 40, 80, 240, 480, 960 mg/kg in water/HCl. […] The percentage of animals in each group which died were utilized to calculate the LD50 by non-linear curve fitting with the Enzfit software (Elsevier Bioscience; Cambridge, UK) programmed with the Chou equation (Chou 1976, J Theor Biol 39:253-276)).
The compounds (FIGS. 4A-E), were screened for toxicity via a modified LD50 assay procedure as described above in an outbred strain of mice.

A short description of data set [3]: in vitro. In kind it is in vitro ADME, mouse (ND4 Swiss Webster). The settings on record: for number of metabolites: mouse liver post-mitochondrial supernatant, NADPH; for metabolised at 1 h: mouse, liver post-mitochondrial supernatant, 60 min incubation, by peak area, read-out: drug altered (metabolic conversion). The protocol: Several female ND4 Swiss Webster mice were euthanized by carbon dioxide inhalation and the livers excised and rinsed with ice cold phosphate buffered saline (pH 7.4). The livers were minced, gently homogenized in 50 mM phosphate buffer (pH 7.4) with a Dounce homogenizer, and centrifuged at 9600×g for 20 min. The post-mitochondrial supernatant was kept, glycerol added to 20%, and frozen at -70° C. in 1.0 ml aliquots until used. For each incubation, 1.0 ml of a 1.0 mg/ml drug solution was added to 3.0 ml of 50 mM phosphate buffer (pH 7.4), 1.0 ml of 2 mg/ml NADPH in 50 mM phosphate (pH 7.4), and 1.0 ml of the post-mitochondrial supernatant. Five hundred μl of each incubate was then immediately transferred to an ice-cold tube to provide the zero-time sample, and addition 500 μl aliquots removed to ice-cold tubes at 8, 15, 30, and 60 min. The samples were then extracted, and analyzed by HPLC as described in section 7.1. Control incubations were also performed where drug or post-mitochondrial supernatant was omitted. […] Peaks in the CNI compound incubations which increased over time, and were not present in control samples lacking the enzyme preparation were treated as putative metabolites.

Data set [4] relates to Plasmodium falciparum clone Dd2. Briefly: Antimalarial activity in vitro, hypoxanthine incorporation, clone Dd2. The settings on record: for IC50: Plasmodium falciparum. In kind it is cell-based. The protocol:
(§1) The antimalarial activity of the compounds was determined essentially as described in Desjardins et al. supra. Fifty Al of various concentrations of a compound of the invention, chloroquine, or pyrimethamine were added to the wells of microtiter plates, followed by 200 Al of ring-stage, synchronized, P. falciparum-infected erythrocytes (final hematocrit=1.5%, final parasitemia=1-5%). The plates were incubated for 24 hr in a candle jar kept at 37° C., and then 25 μl of [^3 H]-hypoxanthine (Amersham, Arlington Heights, Ill.; 2.5 μl Ci/well) was added. The plates were then incubated for a further 24 hr, before harvesting onto Unifilter-96 GF/C filter-microplates (Packard; Meriden, Conn.). Twenty-five μl of Microscint scintillation fluid (Packard) was added to each well of the filter-microplate, which was subsequently counted in a Top-count microplate scintillation counter (Packard). The percent of [^3 H] -hypoxanthine uptake relative to control infect-erythrocytes was used to determine the IC50 value for the compounds by non-linear regression for LD50 determination.
The Dd2 clone of P. falciparum, which was both chloroquine and pyrimethamine resistant, was utilized to compare the antimalarial activity of the remaining CNI compounds (Table VIII).

For data set [5] the following is noted: for Clearance: Table IV, measured in a 25 gr mouse.
Description: (§2) Standard addition curves for each test compound were constructed by adding increased amounts of drug to mouse or human A^+ plasma (Long Island Blood Services; Melville, N.Y.). […] The eluted sample was reduced to dryness in a rotary evaporator and resuspended in 1.0 ml Buffer A.
(§3) Female ND4 Swiss Webster mice (21-24 g) were obtained from Harlan Sprague Dawley (Indianapolis, Ind.) and randomly placed in groups of five in cages with free access to food and water. […] The other CNI compounds were administered intraperitoneally or by oral gavage as a solution in water titrated with sufficient HCl to dissolve the drug. At various time points, ranging from 5 min to 4 days, a single group of animals was euthanized by carbon dioxide inhalation and bled by cardiac puncture using heparin as an anticoagulant. The blood from the five mice in the group was pooled and centrifuged at 14000×g for 10 min. The volume of plasma was measured, and equal volume of Buffer A added, and the mixture extracted and analyzed as described above, except that the dried eluates were resuspended in 200 μl Buffer A and 100 μl was injected onto the high performance liquid chromatography (HPLC) system.
(§4) The area under the plasma concentration-time curve (AUC) was determined, and bioavailability was measured as AUCoral /AUCi.p.. […] The volume of distribution (VD) was calculated as dose/B, and the total clearance rate (Cltot) calculated as β*VD. Cmax and tmax are the maximal plasma concentration and time of this measurement, respectively.
The nature of data set [6]: in vivo. As to conditions: mouse, plasma, ip.
Description: as §2, §3, §4
In data set [7] the test system is Plasmodium falciparum clone D10. Briefly: Antimalarial activity in vitro, hypoxanthine incorporation, clone D10. As to conditions: clone D10, n = 2, read-out: Pyrimethamine IC50. In kind it is cell-based. As for the experimental part: as §1
Data set [8] concerns Plasmodium falciparum clone FCR-3. Briefly: Antimalarial activity in vitro, hypoxanthine incorporation, clone FCR-3. In kind it is cell-based. The settings on record: FCR3, clone FCR-3, n = 2, read-out: Pyrimethamine IC50. As for the experimental part: as §1
For data set [9], the system named is Plasmodium falciparum clone HB3. Briefly: Antimalarial activity in vitro, hypoxanthine incorporation, clone HB3. In kind it is cell-based. The settings on record: clone HB3, n = 2, read-out: Pyrimethamine IC50. The protocol:
as §1

The subject of data set [10] is Plasmodium falciparum clone W2mef. Briefly: Antimalarial activity in vitro, hypoxanthine incorporation, clone W2mef. Type of data set: cell-based. As to conditions: read-out: Pyrimethamine IC50. As for the experimental part: as §1
[11] abbreviates: DD2, read-out: IC50 ± standard deviation.

SMILES strings stand for the structures. “Also recorded” adds a separate entry of the source. Read-outs that look alike come from different tables or passages of the source.

Usually IC50 stands for the concentration that gives 50% inhibition. The CL/F is clearance divided by bioavailability, as obtained after extravascular dosing. In the case of `CC(=O)c1cccc(Nc2cc(C)nc(N)n2)c1` [Compound No. 15, 4-(3-acetylphenyl)amino-2-amino-6-methylpyrimidine], the IC50 in data set [1] turned out to be 0.015 µM. In data set [2], the “LD50 (median lethal dose)” value came to 49.04 ± 0.08 mg/kg and the tolerability entry is recorded as “appreciably more lethal”. In data set [2] (listed as CNI-1594), the “signs and time of toxic reactions / death” value was “death occurring in minutes and the animals displaying signs of acute neurotoxicity; also recorded: suggested a lethal neurotoxicity”. Also, in data set [3], the number of metabolites entry is “three minor and one major metabolite”; the metabolised at 1 h was found to be 11.7%. Moreover, the concentration for half-maximal inhibition (IC50) in [4] (setting [11]) was determined as 23.7 ± 0.59 µM. The “IC50 relative to CNI-1194 and CNI-4594” value in data set [4] (clone Dd2) is “equal to that for CNI-1194 or CNI-4594”. Besides, the Clearance in data set [5] stood at 26.40 mL/min. Also, in data set [5] (i.p., 20 mg/kg, water), the “A (zero time intercept, distribution phase)” value is 1.10 µg/mL; the “B (zero time intercept, elimination phase)” value was 0.01 µg/mL; the VD is 39.60 L; the t1/2α turned out to be 0.32 h. Besides, in data set [5] (i.p., 20 mg/kg, water), the t1/2β is 17.33 h and the α amounted to 2.14 h⁻¹. Moreover, in data set [6] (20 mg/kg), the CL/F came to 26.4 mL/min and the k el is 1.11e-05 s⁻¹.
`CC(=O)c1cc(Nc2cc(C)nc(N)n2)cc(C(C)=O)c1` [Compound No. 11, 2-amino-4-(3,5-diacetylphenyl)amino-6-methylpyrimidine] returned an IC50 in data set [1] of 0.05 µM. Further, in data set [2], the “LD50 (median lethal dose)” value is listed as more than 160 mg/kg and the tolerability entry was “also well tolerated”. In addition, in data set [3], the number of metabolites result was “three minor and one major metabolite”; the metabolised at 1 h was 65.2%. Besides, the IC50 in data set [4] (setting [11]) is 20.3 ± 1.62 µM. Besides, the “fold less active than CNI-0294” value in [4] (clone Dd2) is given as “approximately 5 fold”. In [5], this molecule yielded a Clearance of 16.50 mL/min. In addition, in data set [5] (i.p., 50 mg/kg, water), the “A (zero time intercept, distribution phase)” value came to 5.22 µg/mL; the “B (zero time intercept, elimination phase)” value turned out to be 0.14 µg/mL; the t1/2α was found to be 0.38 h; the t1/2β stood at 3.65 h. In addition, the α in [5] (i.p., 50 mg/kg, water) is 1.83 h⁻¹. The “time drug was detectable in plasma” value in data set [5] (oral 50 mg/kg) is “at least 6 hr”. In data set [5] (oral vs i.p.), the relative bioavailability was 15%. The Bioavaliability in [5] (oral, 50 mg/kg, water, AUCoral/AUCi.p.) is 0.15. Also, in [5] (single 50 mg/kg dose, AUCoral against AUCi.p.), the relative bioavailability is 15%. In data set [6] (50 mg/kg), the CL/F was 16.5 mL/min and the k el is 5.28e-05 s⁻¹.
In the case of `CCc1nc(N)nc(N)c1-c1ccc(Cl)cc1` [Pyrimethamine, reference compound], the IC50 is 171 ± 24.6 µM in [7]; 104 ± 9.79 µM in data set [4] (DD2, read-out: Pyrimethamine IC50); 0.04 ± 0.01 µM in data set [8]; 8.97 ± 2.75 µM in data set [9]; 17.8 ± 13.5 µM in data set [10].

These data come from US5840893A, “Compounds for treating infectious diseases” (priority 1996, dated 1998).
